According to US8445451B2, “Macrolides and uses of macrolides” (Basilea Pharmaceutica AG, priority 2008, dated 2013):

These molecules were tested on T1, human PDE4 (assay: IMAP FP in vitro enzymatic PDE4 inhibition assay). Settings: PDE4 partially purified from human monocytic U-937 cells; 90 minutes at room temperature; fluorescence polarization.
T1 construct: PDE4 is partially purified from undifferentiated human monocytic cells (U-937) according to Thorpy et al. 1992 (J. Pharmacol. Exp. Ther. 263: 1195)
Format: biochemical
Protocol: PDE4 specifically hydrolyzes cAMP and releases the product AMP. The potency of PDE inhibition by said agents is determined in an in vitro enzymatic assay. The assay is commercially available (IMAP™ FP assay Molecular Devices Corp.(MDS)) and is optimized for the use of human PDE4. Fluorescently labeled cAMP is hydrolyzed by PDE4 and in a second step, binding of labeled product to a large binding partner allowed product detection by fluorescence polarization (FP) measurements.
PDE4 is partially purified from undifferentiated human monocytic cells (U-937) according to Thorpy et al. 1992 (J. Pharmacol. Exp. Ther. 263: 1195). […] In addition, PDE4 preparations are validated by inhibition studies with PDE4-specific and unspecific PDE inhibitors.
Stock solutions of test compounds are made in DMSO and diluted in assay buffer (10 mM Tris-HCl, 10 mM MgCl2, 0.1% BSA 0.05% NaN3, pH 7.2) to the desired concentrations. The solutions used in the assay contained test compound in assay buffer with 2% DMSO.
10 μl of substrate (at a concentration recommended by the manufacturer) are mixed with 5 μl of appropriately diluted PDE and 5 μl of test compound solution. 5 μl of reaction buffer with 2% DMSO are used for control reactions. […] After incubation for 90 minutes at room temperature, 60 μl of binding reagent are added as specified by the manufacturer. Binding is allowed to proceed for 30 minutes and fluorescence polarization is measured. Dose dependence of PDE inhibition is measured by assaying dilution series of test compounds in duplicates. IC50 values are determined from the measured activities by curve fitting.
Work on `CCC1OC(=O)C(C)C(OC2CC(C)(OC)C(O)C(C)O2)C(C)C(OC2OC(C)CC(N(C)C)C2O)C(C)(OC)CC(C)C(=O)C(C)C2C(SCCn3c(CCc4cccnc4)nc4c(N)ncnc43)C(=O)OC12C` (stereo not drawn) [Example 1] yielded an IC50 of 13.4 µM.
`CC[C@H]1OC(=O)[C@H](C)[C@@H](O[C@H]2C[C@@](C)(OC)[C@@H](O)[C@H](C)O2)[C@H](C)[C@@H](O[C@@H]2O[C@H](C)C[C@H](N(C)C)[C@H]2O)[C@](C)(OC)C[C@@H](C)C(=O)[C@H](C)[C@H]2[C@H](SCCn3c(Nc4cccnc4)nc4c(N)ncnc43)C(=O)O[C@@]21C` [Example 2] was tested, and the IC50 was 3.9 µM.
Molecule `CC[C@H]1OC(=O)[C@H](C)[C@@H](O[C@H]2C[C@@](C)(OC)[C@@H](O)[C@H](C)O2)[C@H](C)[C@@H](O[C@@H]2O[C@H](C)C[C@H](N(C)C)[C@H]2O)[C@](C)(OC)C[C@@H](C)C(=O)[C@H](C)[C@H]2[C@H](SCCN(C(=O)c3ccncc3)c3ccc(OC)c(OC4CCCC4)c3)C(=O)O[C@@]21C` [Example 3] has an IC50 of 3.4 µM.
`CC[C@H]1OC(=O)[C@H](C)[C@@H](O[C@H]2C[C@@](C)(OC)[C@@H](O)[C@H](C)O2)[C@H](C)[C@@H](O[C@@H]2O[C@H](C)C[C@H](N(C)C)[C@H]2O)[C@](C)(OC)C[C@@H](C)C(=O)[C@H](C)[C@H]2[C@H](SCCN(Cc3ccncc3)c3ccc(OC)c(OC4CCCC4)c3)C(=O)O[C@@]21C` [Example 4] was tested, and the IC50 was 0.28 µM.
`CC[C@H]1OC(=O)[C@H](C)[C@@H](O[C@H]2C[C@@](C)(OC)[C@@H](O)[C@H](C)O2)[C@H](C)[C@@H](O[C@@H]2O[C@H](C)C[C@H](N(C)C)[C@H]2O)[C@](C)(OC)C[C@@H](C)C(=O)[C@H](C)[C@H]2[C@H](SCCN(Cc3cccnc3)c3ccc(OC)c(OC4CCCC4)c3)C(=O)O[C@@]21C` [Example 5] showed an IC50 of 0.85 µM.
With `CC[C@H]1OC(=O)[C@H](C)[C@@H](O[C@H]2C[C@@](C)(OC)[C@@H](O)[C@H](C)O2)[C@H](C)[C@@H](O[C@@H]2O[C@H](C)C[C@H](N(C)C)[C@H]2O)[C@](C)(OC)C[C@@H](C)C(=O)[C@H](C)[C@H]2[C@H](SCCNc3c(C(=O)Nc4c(Cl)cncc4Cl)cnc4c3cnn4CC)C(=O)O[C@@]21C` [Example 6] the IC50 was 0.37 µM.
`CC[C@H]1OC(=O)[C@H](C)[C@@H](O[C@H]2C[C@@](C)(OC)[C@@H](O)[C@H](C)O2)[C@H](C)[C@@H](O[C@@H]2O[C@H](C)C[C@H](N(C)C)[C@H]2O)[C@](C)(OC)C[C@@H](C)C(=O)[C@H](C)[C@H]2[C@H](SCCCc3c(C(=O)Nc4ccncc4)ccc(OC)c3OC)C(=O)O[C@@]21C` [Example 7] was tested, and the IC50 was 7.6 µM.
With `CC[C@H]1OC(=O)[C@H](C)[C@@H](O[C@H]2C[C@@](C)(OC)[C@@H](O)[C@H](C)O2)[C@H](C)[C@@H](O[C@@H]2O[C@H](C)C[C@H](N(C)C)[C@H]2O)[C@](C)(OC)C[C@@H](C)C(=O)[C@H](C)[C@H]2[C@H](SCCCn3cnc4c(N)ncc(C(=O)Nc5ccncc5)c43)C(=O)O[C@@]21C` [Example 8] the IC50 was 4.7 µM.
`CC[C@H]1OC(=O)[C@H](C)[C@@H](O[C@H]2C[C@@](C)(OC)[C@@H](O)[C@H](C)O2)[C@H](C)[C@@H](O[C@@H]2O[C@H](C)C[C@H](N(C)C)[C@H]2O)[C@](C)(OC)C[C@@H](C)C(=O)[C@H](C)[C@H]2[C@H](SCCCn3cnc4c(N)ncc(C(=O)NCC(=O)OC)c43)C(=O)O[C@@]21C` [Example 9] gave an IC50 of 24.2 µM.
`CC[C@H]1OC(=O)[C@H](C)[C@@H](O[C@H]2C[C@@](C)(OC)[C@@H](O)[C@H](C)O2)[C@H](C)[C@@H](O[C@@H]2O[C@H](C)C[C@H](N(C)C)[C@H]2O)[C@](C)(OC)C[C@@H](C)C(=O)[C@H](C)[C@H]2[C@H](SCCn3cnc4c(N)ncc(C(=O)Nc5ccncc5)c43)C(=O)O[C@@]21C` [Example 10] was tested, and the IC50 was 1 µM.
`CC[C@H]1OC(=O)[C@H](C)[C@@H](O[C@H]2C[C@@](C)(OC)[C@@H](O)[C@H](C)O2)[C@H](C)[C@@H](O[C@@H]2O[C@H](C)C[C@H](N(C)C)[C@H]2O)[C@](C)(OC)C[C@@H](C)C(=O)[C@H](C)[C@H]2[C@H](SCCn3cnc4c(N)ncc(C(=O)Nc5c(Cl)cncc5Cl)c43)C(=O)O[C@@]21C` [Example 11] gave an IC50 of 0.008 µM.
With `CC[C@H]1OC(=O)[C@H](C)[C@@H](O[C@H]2C[C@@](C)(OC)[C@@H](O)[C@H](C)O2)[C@H](C)[C@@H](O[C@@H]2O[C@H](C)C[C@H](N(C)C)[C@H]2O)[C@](C)(OC)C[C@@H](C)C(=O)[C@H](C)[C@H]2[C@H](SCCn3cnc4c(N)nc(NCc5cccnc5)nc43)C(=O)O[C@@]21C` [Example 12] the IC50 was 3.8 µM.
With `CC[C@H]1OC(=O)[C@H](C)[C@@H](O[C@H]2C[C@@](C)(OC)[C@@H](O)[C@H](C)O2)[C@H](C)[C@@H](O[C@@H]2O[C@H](C)C[C@H](N(C)C)[C@H]2O)[C@](C)(OC)C[C@@H](C)C(=O)[C@H](C)[C@H]2[C@H](SCCn3cnc4c(N)nc(NCc5ccncc5)nc43)C(=O)O[C@@]21C` [Example 13] the IC50 was 2.6 µM.
Molecule `CC[C@H]1OC(=O)[C@H](C)[C@@H](O)[C@H](C)[C@@H](O[C@@H]2O[C@H](C)C[C@H](N(C)C)[C@H]2O)[C@](C)(OC)C[C@@H](C)C(=O)[C@H](C)[C@H]2[C@H](SCCn3cnc4c(N)ncc(C(=O)Nc5c(Cl)cncc5Cl)c43)C(=O)O[C@@]21C` [Example 14] has an IC50 of 0.0049 µM.
`CC[C@H]1OC(=O)[C@H](C)C(=O)[C@H](C)[C@@H](O[C@@H]2O[C@H](C)C[C@H](N(C)C)[C@H]2O)[C@](C)(OC)C[C@@H](C)C(=O)[C@H](C)[C@H]2[C@H](SCCN(Cc3c(Cl)cncc3Cl)c3ccc(OC)c(OC4CCCC4)c3)C(=O)O[C@@]21C` [Example 15] gave an IC50 of 0.48 µM.
`CC[C@H]1OC(=O)[C@H](C)[C@@H](O)[C@H](C)[C@@H](O[C@@H]2O[C@H](C)C[C@H](N(C)C)[C@H]2O)[C@](C)(OC)C[C@@H](C)C(=O)[C@H](C)[C@H]2[C@H](SCCNc3c(C(=O)Nc4c(Cl)cncc4Cl)cnc4c3cnn4CC)C(=O)O[C@@]21C` [Example 16] showed an IC50 of 0.11 µM.
Molecule `CSCCn1cnc2c(N)ncc(C(=O)Nc3c(Cl)cncc3Cl)c21` [reference compound] has an IC50 of 3.6 µM.

Same assay, conditions: up to a concentration of 50 μM in the assay used in the examples
`CC[C@H]1OC(=O)[C@H](C)[C@@H](O[C@H]2C[C@@](C)(OC)[C@@H](O)[C@H](C)O2)[C@H](C)[C@@H](O[C@@H]2O[C@H](C)C[C@H](N(C)C)[C@H]2O)[C@](C)(OC)C[C@@H](C)C(=O)[C@H](C)[C@H]2[C@H](SC)C(=O)O[C@@]21C` [reference compound] was tested, and the PDE4-inhibiting activity was “does not show any PDE4-inhibiting activity”.
